Experimental data from PMC10938758, “A phenotypic screen of the Global Health Priority Box identifies an insecticide with anthelmintic activity” (Parasites & Vectors, 2024).
Like-named read-outs stand apart in the source and are kept apart here.

Legend:
[1] = test system: exsheathed third-stage larvae (xL3s) of Haemonchus contortus; assay: Primary screen, H. contortus larval development and phenotype (microscopy)
Procedure: An established high-throughput phenotypic screening assay was used to test the anthelmintic activity of compounds on H. contortus xL3s. Compounds were assessed for motility inhibition at a concentration of 20 µM in LB*. […] A solution of LB* + 1% (v/v) DMSO was used as a negative control. Test compounds were distributed amongst one flat-bottom, 384-well microplate (cat no. 3860; Corning, Corning, NY, USA). Eighty xL3s of H. contortus in 20 µl of LB* were added to each well to give a final volume of 40 µl. The plate was then placed in a CO2 incubator (10% [v/v] CO2, 38 °C, > 90% humidity). At 90 h, worm activity was captured using a WMicroTracker ONE unit (Phylumtech, Sunchales, Santa Fe, Argentina). Over a period of 15 min, disturbance of an infrared beam in individual wells was recorded as a worm ‘activity count’. Activity counts were then normalised to the positive and negative controls using the GraphPad Prism program (v.9.1.0 GraphPad Software, San Diego, CA, USA). The screening plate was then returned to the incubator (10% [v/v] CO2, 38 °C, > 90% humidity) for an additional 72 h. At 168 h, worms were fixed with 40 µl of Lugol solution (Sigma-Aldrich, St. Louis, MO, USA). Compounds were then assessed (microscopically) for inhibition of larval development and/or induction of a non-wild-type phenotype in H. contortus worms. […] The performance of the assay was monitored using the Z′-factor [58] calculated using data for the negative (DMSO) and positive (M-666) control compounds on individual plates.

H. contortus larvae = assay: H. contortus dose-response assay, larval development; parameters: species or system Haemonchus contortus; details: 168 h of incubation, read-out: IC50, inhibition of H. contortus larval development
Procedure: (§1) The dose–response assay for H. contortus followed a well-established protocol; it was employed to evaluate the potency of hit compounds against this nematode. Test compounds were assessed individually for an effect on the motility of xL3s (10-point, twofold serial dilution in LB*, 40–0.16 μM). One compound, monepantel (prepared in the same manner as the test compounds), was used as a positive control. A solution of LB* was used as a negative control. The test and positive-control compounds were arrayed in triplicate across individual flat-bottom 96-well microplates, with six wells on each plate containing the negative control. Three hundred xL3s of H. contortus in 50 μl of LB* were added to each well to give a final volume of 100 μl. Plates were then placed in a CO2 incubator (10% [v/v] CO2, 38 °C, > 90% humidity). After 168 h of incubation, worm activity was captured using a WMicroTracker ONE unit. Over a period of 15 min, disturbance of an infrared beam in individual wells was recorded as a worm activity count. Raw activity counts for each well were normalised to the negative controls. The compound concentrations were log10-transformed and fitted using a variable-slope four-parameter equation, using the ordinary least squares fit model, employing GraphPad Prism (v.9.1.0). Larval development was established at 168 h of incubation with compound, as described previously. The development inhibition and phenotypes of larvae were examined microscopically. A one-way analysis of variance (ANOVA) with a Tukey multiple comparison test or an unpaired t-test was used to establish statistically significant differences in larval motility or development.

C. elegans young adults = assay: C. elegans dose-response assay, motility; parameters: species or system Caenorhabditis elegans; details: 40 h of incubation
Procedure: The dose–response assay for C. elegans followed a well-established protocol and was employed to evaluate the potency of hit compounds against this nematode. Test and positive-control compounds as well as negative controls were prepared in 96-well microplates (cf.). One hundred C. elegans in 50 μl of LB* were added to each well to give a final volume of 100 μl. Plates were then placed in an incubator at 20 °C for 40 h. At 40 h, worm activity was captured using a WMicroTracker ONE unit. Raw activity counts for each well were normalised to the negative controls. The compound concentrations were log10-transformed and fitted using a variable-slope four-parameter equation, using the ordinary least squares fit model, employing GraphPad Prism (v.9.1.0). A one-way ANOVA with a Tukey multiple comparison test or an unpaired t-test was used to establish statistically significant differences in larval motility.

H. contortus xL3s = assay: H. contortus dose-response assay, xL3 motility; parameters: species or system Haemonchus contortus; details: xL3s, 90 h of incubation; for IC50: read-out: IC50, H. contortus larval motility inhibition
Procedure: as §1, with “After 168 h of incubation, worm activity was captured using a WMicroTracker ONE unit.” left out

[2] = test system: adult females of H. contortus; assay: Motility of H. contortus adult females (video scoring); parameters: species or system Haemonchus contortus; details: 40 μM
Procedure: The activity of two test compounds was assessed on adult female specimens of H. contortus in an established assay. The compound was added in triplicate to the wells of a 24-well plate (Corning, USA) at a concentration of 40 μM in 500 μl of RPMI*. Two positive-control compounds, monepantel and moxidectin, and a negative control containing 1% (v/v) DMSO only were included in triplicate on the same plate. Three adult females were added to each of the triplicate wells containing either the test compound or the controls and placed in a CO2 incubator (10% [v/v] CO2, 38 °C, > 90% relative humidity) for 24 h. A video recording (30 s) of each well was taken at 3 h, 6 h, 12 h and 24 h during the total incubation period to assess the reduction in worm motility, which was scored as 3 (‘good’), 2 (‘low’), 1 (‘very low’) or 0 (‘no movement’; cf.). For each test or control compound, the motility scores for each of the triplicate wells were calculated, normalised with reference to the negative control (100% motility) and recorded as a percentage. A two-way ANOVA with a Tukey multiple comparison test was used to establish statistically significant differences in worm motility.

[3] = test system: rat hepatoma (FAO cell line) cells; details: cited from earlier work
[4] = H. contortus larvae; 20 µM; 168 h
[5] = Haemonchus contortus, 168 h, H. contortus, 20 µM, read-out: Larval development inhibition, %

## C=C(C)[C@H]1Cc2c(ccc3c2O[C@@H]2COc4cc(OC)c(OC)cc4[C@@H]2C3=O)O1 [MMV002519, rotenone]
[1]; [4]
  Abnormal phenotype: Str
  Induction of an abnormal phenotype (in words): induced an abnormal phenotype
[1]; Haemonchus contortus, 168 h, read-out: Larval development inhibition; %
  inhibition at 20 µM: 100%

## CO/N=C1\C[C@]2(C[C@@H]3C[C@@H](C/C=C(\C)C[C@@H](C)/C=C/C=C4\CO[C@@H]5[C@H](O)C(C)=C[C@@H](C(=O)O3)[C@]45O)O2)O[C@H](/C(C)=C/C(C)C)[C@H]1C [Moxidectin, moxidectin]
[1]; H. contortus; 20 µM; 168 h
  Larval development inhibition; %: 100%

## C[C@](C#N)(COc1cc(C#N)ccc1C(F)(F)F)NC(=O)c1ccc(SC(F)(F)F)cc1 [Monepantel, monepantel]
H. contortus larvae; Haemonchus contortus
  IC50: 260 ± 30 nM
[1]; [4]
  Abnormal phenotype: Coi
[1]; [5]
  inhibition at 20 µM: 100%
C. elegans young adults
  Maximum motility inhibition (MMI), C. elegans: 95%
C. elegans young adults; Caenorhabditis elegans, read-out: IC50, C. elegans young adult motility
  IC50: 30 ± 10 nM
H. contortus xL3s; Haemonchus contortus
  IC50: 330 ± 120 nM
H. contortus xL3s
  Maximum motility inhibition (MMI), H. contortus larvae: 95%
[2]; 3 h
  Reduction of motility of adult females of H. contortus: ~ 0%
[2]; 6 h
  Reduction of motility of adult females of H. contortus: ~23%
[2]; 12 h
  Reduction of motility of adult females of H. contortus: ~66%
[2]; 24 h
  Reduction of motility of adult females of H. contortus: ~100%

## CCc1nn(C)c(C(=O)NCc2ccc(Oc3ccc(C)cc3)cc2)c1Cl [MMV688934, tolfenpyrad]
[1]; [4]
  Abnormal phenotype: Str
  Induction of an abnormal phenotype (in words): induced an abnormal phenotype
[1]; Haemonchus contortus; H. contortus; 20 µM; 168 h; read-out: Larval development inhibition; %
  inhibition at 20 µM: 100%
[3]
  Respiration in FAO cells: inhibit respiration

## CO[C@H]1C[C@H](O[C@@H]2/C(C)=C/C[C@@H]3C[C@@H](C[C@]4(CC[C@H](C)[C@@H](C5CCCCC5)O4)O3)OC(=O)[C@@H]3C=C(C)/C(=N/O)[C@H]4OC/C(=C\C=C\[C@@H]2C)[C@]43O)O[C@@H](C)[C@@H]1O [MMV002231, selamectin]
[1]; [4]
  Abnormal phenotype: Cur
[1]; [5]
  inhibition at 20 µM: ≥ 90%

## abamectin [MMV1577454]
[1]; [4]
  Abnormal phenotype: Str

## CCOCn1c(-c2ccc(Cl)cc2)c(C#N)c(Br)c1C(F)(F)F [MMV1577458, chlorfenapyr]
[1]; [4]
  Abnormal phenotype: Cur
  Induction of an abnormal phenotype (in words): induced an abnormal phenotype
[1]; [5]
  inhibition at 20 µM: 100%

## CO/N=C1\C[C@]2(C[C@@H]3C[C@@H](C/C=C(\C)C[C@@H](C)/C=C/C=C4\CO[C@@H]5[C@H](O)C(C)=C[C@@H](C(=O)O3)[C@]45O)O2)O[C@H](/C(C)=C/C(C)C)[C@H]1C [MMV1633828, moxidectin]
[1]; [5]
  inhibition at 20 µM: ≥ 90%

## O=C(Nc1ccc(Cl)c(C(F)(F)F)c1)Nc1ccc(Cl)c(C(F)(F)F)c1 [MMV027339]
[1]; [4]
  Induction of an abnormal phenotype (in words): did not inhibit development or induce an abnormal phenotype
H. contortus xL3s
  IC50: > 40000 nM

## COc1cc(/C=N/c2c(SC(F)(F)F)c(C#N)nn2-c2c(Cl)cc(C(F)(F)F)cc2Cl)ccc1O [MMV1794214]
H. contortus larvae
  IC50: > 40000 nM
[1]; [4]
  Induction of an abnormal phenotype (in words): did not inhibit development or induce an abnormal phenotype
H. contortus xL3s
  Maximum motility inhibition (MMI), H. contortus larvae: 70%
  IC50: 4500 ± 1100 nM
[2]; 3 h
  Reduction of motility of adult females of H. contortus: ~ 0%
[2]; 6 h
  Reduction of motility of adult females of H. contortus: ~ 0%
[2]; 12 h
  Reduction of motility of adult females of H. contortus: ~23%
[2]; 24 h
  Reduction of motility of adult females of H. contortus: ~15%
